Results taken from doi:10.1101/2024.08.25.609621 (bioRxiv, 2024).
pIC50, pKi: −log10 of the molar value. Like-named read-outs stand apart in the source and are kept apart here.

Experiments:
[1] = target: SARS-CoV-2 NSP3 macrodomain (Mac1), P43 crystal form (Severe acute respiratory syndrome coronavirus 2, UniProt P0DTD1); type: binding
[2] = target: SARS-CoV-2 NSP3 macrodomain (Mac1) (Severe acute respiratory syndrome coronavirus 2, UniProt P0DTD1); assay: biochemical; type: binding
[3] = ligand modeling in Mac1 crystal soak
[4] = Single dose, concentration 200 μM, read-out: Average % competition
[5] = preliminary screen, compound at 200 μM, mean of 3-4 technical replicates, read-out: % competition in HTRF assay
[6] = ligand modeling in Mac1 crystal structure
[7] = dose-response, read-out: SARS CoV-2 macrodomain HTRF assay: Ki
[8] = from SARS CoV-2 macrodomain HTRF assay
[9] = stereoisomer(s) of ligand modeled in Mac1 crystal structure
[10] = SARS CoV-2 macrodomain HTRF assay
[11] = stereoisomer(s) modeled in Mac1 crystal structure
[12] = dose-response, read-out: SARS CoV-2 macrodomain HTRF assay: IC50
[13] = SARS CoV-2 macrodomain HTRF assay, dose-response, read-out: Ki

OC1CCCN(c2ncnc3[nH]ccc23)C1 (centres unmarked) [AVI-3646]
PanDDA run, TFA/DMSO background map: 1-BDC ([1]; crystal soak 10 mM): 0.13
PanDDA run, TFA/DMSO background map: Hit ([1]; crystal soak 10 mM): TRUE
Number of isomers bound [1, 3]: 1
inhibition at 200 µM [2, 4]: 20%
inhibition at 200 µM [2, 5]: 20%

O=S1(=O)CCCC(O)(CNc2ncnc3[nH]ccc23)C1 (centres unmarked) [AVI-4317]
Number of isomers bound [1, 6]: 1
fold less potent compared to the AVI-3761 parent ([2]; HTRF IC50): ~ 4 fold
pKi [2, 7]: 4.00
Ligand efficiency (binding enery per heavy atom) [2, 8]: 0.28
pIC50 ([2]; read-out: HTRF IC50): 3.96

OCC(Cc1ccc(I)cc1)Nc1ncnc2[nH]ccc12 (centres unmarked) [AVI-3686]
PanDDA run, TFA/DMSO background map: 1-BDC ([1]; crystal soak 10 mM): 0.19
PanDDA run, TFA/DMSO background map: Hit ([1]; crystal soak 10 mM): TRUE
Number of isomers bound [1, 3]: 2
Isomers modeled [1, 9]: S,R
inhibition at 200 µM [2, 4]: < 10%
inhibition at 200 µM [2, 5]: < 10%

OCC(COCc1ccccc1)Nc1ncnc2[nH]ccc12 (centres unmarked) [AVI-3709]
Number of isomers bound [1, 3]: 2
PanDDA run, TFA/DMSO background map: 1-BDC ([1]; soak concentration 10 mM): 0.16
PanDDA run, TFA/DMSO background map: Hit ([1]; soak concentration 10 mM): TRUE
Isomers modeled [1, 9]: S,R
inhibition at 200 µM [2, 4]: 29%
inhibition at 200 µM [2, 5]: 29%

O=C1CCc2cc(C(=O)N3CC(C(=O)O)CCC34CCCC4)c(F)cc2N1 (centres unmarked) [AVI-338]
Number of isomers bound [1, 6]: 1
pIC50 ([2]; Dose-response, SARS CoV-2 macrodomain HTRF assay, read-out: IC50): 3.10
Ligand efficiency (binding enery per heavy atom) [2, 10]: 0.16
pKi ([2]; SARS CoV-2 macrodomain HTRF assay, read-out: Ki): 3.13

OC1(CNc2ncnc3[nH]ccc23)CCC(F)(F)CC1 [AVI-4308]
Number of isomers bound [1, 6]: 1
Isomers modeled [1, 11]: achiral
pIC50 [2, 12]: 3.85
pKi [2, 7]: 3.89
Ligand efficiency (binding enery per heavy atom) [2, 8]: 0.27

OC[C@@H]1C[C@H](O)CN1c1ncnc2[nH]ccc12 [AVI-610]
Number of isomers bound [1, 3]: 1
pIC50 [2, 12]: 3.80
pKi [2, 7]: 3.82
Ligand efficiency (binding enery per heavy atom) [2, 8]: 0.31

CC(c1ccccc1)C(CO)Nc1ncnc2[nH]ccc12 (centres unmarked) [AVI-3669]
PanDDA run, TFA/DMSO background map: 1-BDC ([1]; crystal soak 10 mM): 0.09
PanDDA run, TFA/DMSO background map: Hit ([1]; crystal soak 10 mM): TRUE
Number of isomers bound [1, 3]: 1
fold more potent / increased binding affinity than AVI-313 parent ([2]; HTRF IC50 compared with AVI-313): > 10 fold
Ligand efficiency (binding enery per heavy atom) [2, 10]: 0.33
pKi [2, 13]: 5.09
Ligand efficiency ([2]; binding energy per heavy atom): 0.33
pIC50 ([2]; read-out: HTRF IC50): 5.06

CCC1(O)CCN(c2ncnc3[nH]ccc23)C1 (centres unmarked) [AVI-612]
Number of isomers bound [1, 3]: 1
inhibition at 200 µM [2, 4]: 22%
inhibition at 200 µM [2, 5]: 22%

O=C(O)C(F)(F)F.OCC1(Nc2ncnc3[nH]ccc23)CC1 [AVI-3688]
PanDDA run, TFA/DMSO background map: 1-BDC ([1]; crystal soak 10 mM): 0.17
PanDDA run, TFA/DMSO background map: Hit ([1]; crystal soak 10 mM): TRUE
Number of isomers bound [1, 3]: 1
Isomers modeled [1, 9]: achiral
inhibition at 200 µM [2, 4]: 72%
inhibition at 200 µM [2, 5]: 72%

OCC(Nc1ncnc2[nH]ccc12)C1CCOC1 (centres unmarked) [AVI-3679]
PanDDA run, TFA/DMSO background map: 1-BDC ([1]; crystal soak 10 mM): 0.11
PanDDA run, TFA/DMSO background map: Hit ([1]; crystal soak 10 mM): TRUE
Number of isomers bound [1, 3]: 1
inhibition at 200 µM [2, 4]: 35%
inhibition at 200 µM [2, 5]: 35%

Cc1c[nH]c2ncnc(NCC3(O)CCC(C)CC3)c12 (centres unmarked) [AVI-4331]
Number of isomers bound [1, 6]: 1
Isomers modeled [1, 11]: rr
pIC50 [2, 12]: 3.68
Ligand efficiency (binding enery per heavy atom) [2, 8]: 0.26

CN(CC1(O)CCOCC1)c1ncnc2[nH]ccc12 [AVI-4318]
Number of isomers bound [1, 6]: 1
Isomers modeled [1, 11]: achiral
pIC50 [2, 12]: 4.15
pKi [2, 7]: 4.18
Ligand efficiency (binding enery per heavy atom) [2, 8]: 0.30

CCC(CC)(CO)Nc1ncnc2[nH]ccc12 [AVI-3695]
Number of isomers bound [1, 3]: 1
Isomers modeled [1, 9]: achiral,achiral
Ligand efficiency (binding enery per heavy atom) [2, 10]: 0.36
pIC50 ([2]; SARS CoV-2 macrodomain HTRF assay, dose-response, read-out: IC50): 4.40
pKi [2, 13]: 4.43

Nc1nnc(SCCn2c(=O)oc3ccccc32)s1 [AVI-296]
Isomers modeled [1]: achiral
Number of isomers bound [1]: 1

Cc1c[nH]c2ncnc(NCC3(O)CCC(O)CC3)c12 (centres unmarked) [AVI-4329]
Number of isomers bound [1, 6]: 1
Isomers modeled [1, 11]: rr,rr

CC(C)n1nnnc1SCc1c(C(=O)O)sc2cccc(F)c12 [AVI-291]
Number of isomers bound [1, 6]: 1
Isomers modeled [1, 11]: achiral
